Measurements taken from ChEMBL document CHEMBL1138507, “Synthesis, activity, and pharmacophore development for isatin-beta-thiosemicarbazones with selective activity toward multidrug-resistant cells” (J Med Chem, 2009).

System: not listed separately
Assay: cells
Conditions: Homo sapiens, KB 3-1, 72 h
Description: Cytotoxicity against human P-gp-negative KB-3-1 cells after 72 hrs by MTT assay

Point of comparison: `COc1ccc(NC(=S)N/N=C2\C(=O)Nc3ccc(F)cc32)cc1`, IC50 39.3 µM. Against it:
- NC(=S)/N=N/c1c(O)[nH]c2ccccc12 — higher, > 50 µM
- O=C1Nc2ccc([N+](=O)[O-])cc2/C1=N/NC(=S)Nc1ccccc1 — 2.7-fold lower, 14.5 µM
- C=CCNC(=S)N/N=C1\C(=O)Nc2ccc([N+](=O)[O-])cc21 — 2.3-fold lower, 17 µM
- Cc1cnc(/C=N/NC(N)=S)c2cccc(N)c12 — 21-fold lower, 1.9 µM
- COc1ccc(NC(=S)NN)cc1 — higher, > 50 µM
- COc1ccc(NC(=S)N/N=C/c2ccccn2)cc1 — 12-fold lower, 3.4 µM
- COc1ccc(NC(=S)N/N=C2\C(=O)Nc3c2ccc2ccccc32)cc1 — 8.9-fold lower, 4.4 µM
- COc1ccc(NC(=S)N/N=C2\C(=O)N(C)c3ccccc32)cc1 — 2-fold lower, 19.6 µM
- COc1ccc(NC(=S)N/N=C2\C(=O)Nc3ccc([N+](=O)[O-])cc32)cc1 — within 1.5-fold, 26.3 µM
- COc1ccc(NC(=O)N/N=C2\C(=O)Nc3ccccc32)cc1 — within 1.5-fold, 27.7 µM
- COc1ccc(NC(=S)NN=C2Cc3ccccc3C2)cc1 — higher, > 50 µM
- COc1ccc(NC(=S)N/N=C2\CCc3ccccc32)cc1 — higher, > 50 µM
- O=C1Nc2ccc(Br)cc2/C1=N/NC(=S)Nc1ccc([N+](=O)[O-])cc1 — within 1.5-fold, 28.4 µM
- CCOC(=O)C(=CNC(=S)N/N=C1\C(=O)Nc2ccccc21)C(=O)OCC — higher, > 50 µM
- O=C1Nc2ccc(Br)cc2/C1=N/NC(=S)Nc1ccc(F)cc1 — 3-fold lower, 13.1 µM
- COc1ccc(NC(=S)NNC2=c3ccccc3=NC2=O)cc1 — 2.8-fold lower, 14.2 µM
- COc1ccc(NC(=S)N/N=C2\C(=O)Nc3ccc(S(=O)(=O)O)cc32)cc1 — higher, > 50 µM
- COc1ccc(NC(=S)N/N=C/c2ccc(NC(C)=O)cc2)cc1 — higher, > 50 µM
- C=CCNC(=S)N/N=C1\C(=O)Nc2ccccc21 — 1.5-fold lower, 26.1 µM
- NC(=O)N/N=C1\C(=O)Nc2ccccc21 — higher, > 50 µM
- CC(=O)Nc1ccc(/C=N/NC(N)=S)cc1 [AMITHIOZONE] — higher, > 50 µM
- O=C1Nc2ccccc2C1=O [ISATIN] — higher, > 50 µM
- NC(=S)N/N=C/c1ncccc1N [TRIAPINE] — 28-fold lower, 1.4 µM

Same assay, conditions: Homo sapiens, KB 3-1, 72 h, read-out: pIC50 (converted)

Point of comparison: `COc1ccc(NC(=S)NNC2=c3ccccc3=NC2=O)cc1`, IC50 14.1 µM. Against it:
- O=C1Nc2ccc([N+](=O)[O-])cc2/C1=N/NC(=S)Nc1ccccc1 — within 1.5-fold, 14.5 µM
- C=CCNC(=S)N/N=C1\C(=O)Nc2ccc([N+](=O)[O-])cc21 — 2-fold higher, 28.2 µM
- Cc1cnc(/C=N/NC(N)=S)c2cccc(N)c12 — 7.4-fold lower, 1.91 µM
- COc1ccc(NC(=S)N/N=C/c2ccccn2)cc1 — 4.2-fold lower, 3.39 µM
- COc1ccc(NC(=S)N/N=C2\C(=O)Nc3c2ccc2ccccc32)cc1 — 3.2-fold lower, 4.37 µM
- COc1ccc(NC(=S)N/N=C2\C(=O)Nc3ccc(F)cc32)cc1 — 2.8-fold higher, 38.9 µM
- COc1ccc(NC(=S)N/N=C2\C(=O)N(C)c3ccccc32)cc1 — within 1.5-fold, 19.5 µM
- COc1ccc(NC(=S)N/N=C2\C(=O)Nc3ccc([N+](=O)[O-])cc32)cc1 — 1.9-fold higher, 26.3 µM
- O=C1Nc2ccc(Br)cc2/C1=N/NC(=S)Nc1ccc([N+](=O)[O-])cc1 — 2-fold higher, 28.2 µM
- O=C1Nc2ccc(Br)cc2/C1=N/NC(=S)Nc1ccc(F)cc1 — within 1.5-fold, 13.2 µM
- C=CCNC(=S)N/N=C1\C(=O)Nc2ccccc21 — 1.9-fold higher, 26.3 µM
- NC(=S)N/N=C/c1ncccc1N [TRIAPINE] — 10-fold lower, 1.41 µM

Target: Serine/threonine-protein kinase pim-1 (Homo sapiens, UniProt P11309)
Assay: not given
Conditions: not given

Serine/threonine-protein kinase pim-1, sequence (P11309 whole entry): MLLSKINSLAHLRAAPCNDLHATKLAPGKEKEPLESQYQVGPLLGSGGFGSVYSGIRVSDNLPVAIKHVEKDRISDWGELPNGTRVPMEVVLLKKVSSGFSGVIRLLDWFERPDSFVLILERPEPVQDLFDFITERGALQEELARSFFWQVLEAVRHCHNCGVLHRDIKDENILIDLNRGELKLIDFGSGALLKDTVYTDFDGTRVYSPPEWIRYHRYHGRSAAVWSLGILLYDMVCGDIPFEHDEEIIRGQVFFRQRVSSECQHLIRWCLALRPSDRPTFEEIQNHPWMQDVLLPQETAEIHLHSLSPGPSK

`COc1ccc(NC(=S)NNC2=c3ccccc3=NC2=O)cc1` gave an IC50 of over 50 µM.

Target: Protein kinase C alpha type (Homo sapiens, UniProt P17252)
Assay: Inhibition of PKCalpha
Conditions: not given

Compound `COc1ccc(NC(=S)NNC2=c3ccccc3=NC2=O)cc1` has an IC50 of over 50 µM.

Target: T1, Receptor-type tyrosine-protein kinase FLT3 (Homo sapiens, UniProt P36888)
T1 sequence (P36888 whole entry): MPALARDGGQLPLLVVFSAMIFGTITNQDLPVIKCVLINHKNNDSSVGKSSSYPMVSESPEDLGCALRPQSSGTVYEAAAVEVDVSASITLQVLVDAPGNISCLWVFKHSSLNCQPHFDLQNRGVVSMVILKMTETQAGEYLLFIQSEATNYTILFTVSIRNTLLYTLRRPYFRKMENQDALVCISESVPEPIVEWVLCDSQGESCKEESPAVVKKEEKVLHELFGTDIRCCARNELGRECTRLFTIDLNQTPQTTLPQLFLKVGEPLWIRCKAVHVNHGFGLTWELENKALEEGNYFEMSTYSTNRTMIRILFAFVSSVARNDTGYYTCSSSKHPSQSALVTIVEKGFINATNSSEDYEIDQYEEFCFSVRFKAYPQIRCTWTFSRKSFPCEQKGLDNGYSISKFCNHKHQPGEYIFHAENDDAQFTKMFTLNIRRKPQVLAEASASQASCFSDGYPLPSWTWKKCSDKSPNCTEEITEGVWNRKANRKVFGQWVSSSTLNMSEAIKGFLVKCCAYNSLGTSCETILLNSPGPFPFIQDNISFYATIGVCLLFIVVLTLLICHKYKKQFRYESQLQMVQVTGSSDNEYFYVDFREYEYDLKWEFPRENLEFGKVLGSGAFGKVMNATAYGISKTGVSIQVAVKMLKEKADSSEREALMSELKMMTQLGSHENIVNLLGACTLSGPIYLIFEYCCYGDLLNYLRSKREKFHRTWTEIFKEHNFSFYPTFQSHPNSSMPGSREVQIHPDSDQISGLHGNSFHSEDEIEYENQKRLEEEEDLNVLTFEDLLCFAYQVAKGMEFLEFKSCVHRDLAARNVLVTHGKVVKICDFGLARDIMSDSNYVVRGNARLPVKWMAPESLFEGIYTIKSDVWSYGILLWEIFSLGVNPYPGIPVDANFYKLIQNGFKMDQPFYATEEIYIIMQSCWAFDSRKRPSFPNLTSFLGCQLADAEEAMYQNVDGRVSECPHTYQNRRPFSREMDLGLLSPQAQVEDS
Assay: not given
Conditions: not given

`COc1ccc(NC(=S)NNC2=c3ccccc3=NC2=O)cc1` showed an IC50 of over 50 µM.

Target: T2, Serine/threonine-protein kinase Chk1 (Homo sapiens, UniProt O14757)
T2 sequence (O14757 whole entry): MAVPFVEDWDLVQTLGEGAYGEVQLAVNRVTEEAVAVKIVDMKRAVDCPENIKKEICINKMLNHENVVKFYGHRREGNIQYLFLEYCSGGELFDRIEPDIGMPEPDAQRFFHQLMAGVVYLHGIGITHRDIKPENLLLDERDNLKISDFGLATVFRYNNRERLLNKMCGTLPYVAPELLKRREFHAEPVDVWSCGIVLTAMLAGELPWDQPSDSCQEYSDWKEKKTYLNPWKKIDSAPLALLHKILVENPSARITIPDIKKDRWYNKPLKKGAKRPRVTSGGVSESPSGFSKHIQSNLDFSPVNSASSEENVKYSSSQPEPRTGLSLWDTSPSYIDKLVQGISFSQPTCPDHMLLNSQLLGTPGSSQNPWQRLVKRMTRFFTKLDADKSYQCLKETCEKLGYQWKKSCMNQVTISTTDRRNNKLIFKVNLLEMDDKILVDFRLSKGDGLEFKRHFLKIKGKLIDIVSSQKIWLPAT
Assay: not given
Conditions: not given

In the case of `COc1ccc(NC(=S)NNC2=c3ccccc3=NC2=O)cc1`, the IC50 is reported as over 50 µM.

Target: Tyrosine-protein kinase ABL1 (Homo sapiens, UniProt P00519)
Assay: Inhibition of ABL1
Conditions: not given

Tyrosine-protein kinase ABL1, sequence (P00519 whole entry): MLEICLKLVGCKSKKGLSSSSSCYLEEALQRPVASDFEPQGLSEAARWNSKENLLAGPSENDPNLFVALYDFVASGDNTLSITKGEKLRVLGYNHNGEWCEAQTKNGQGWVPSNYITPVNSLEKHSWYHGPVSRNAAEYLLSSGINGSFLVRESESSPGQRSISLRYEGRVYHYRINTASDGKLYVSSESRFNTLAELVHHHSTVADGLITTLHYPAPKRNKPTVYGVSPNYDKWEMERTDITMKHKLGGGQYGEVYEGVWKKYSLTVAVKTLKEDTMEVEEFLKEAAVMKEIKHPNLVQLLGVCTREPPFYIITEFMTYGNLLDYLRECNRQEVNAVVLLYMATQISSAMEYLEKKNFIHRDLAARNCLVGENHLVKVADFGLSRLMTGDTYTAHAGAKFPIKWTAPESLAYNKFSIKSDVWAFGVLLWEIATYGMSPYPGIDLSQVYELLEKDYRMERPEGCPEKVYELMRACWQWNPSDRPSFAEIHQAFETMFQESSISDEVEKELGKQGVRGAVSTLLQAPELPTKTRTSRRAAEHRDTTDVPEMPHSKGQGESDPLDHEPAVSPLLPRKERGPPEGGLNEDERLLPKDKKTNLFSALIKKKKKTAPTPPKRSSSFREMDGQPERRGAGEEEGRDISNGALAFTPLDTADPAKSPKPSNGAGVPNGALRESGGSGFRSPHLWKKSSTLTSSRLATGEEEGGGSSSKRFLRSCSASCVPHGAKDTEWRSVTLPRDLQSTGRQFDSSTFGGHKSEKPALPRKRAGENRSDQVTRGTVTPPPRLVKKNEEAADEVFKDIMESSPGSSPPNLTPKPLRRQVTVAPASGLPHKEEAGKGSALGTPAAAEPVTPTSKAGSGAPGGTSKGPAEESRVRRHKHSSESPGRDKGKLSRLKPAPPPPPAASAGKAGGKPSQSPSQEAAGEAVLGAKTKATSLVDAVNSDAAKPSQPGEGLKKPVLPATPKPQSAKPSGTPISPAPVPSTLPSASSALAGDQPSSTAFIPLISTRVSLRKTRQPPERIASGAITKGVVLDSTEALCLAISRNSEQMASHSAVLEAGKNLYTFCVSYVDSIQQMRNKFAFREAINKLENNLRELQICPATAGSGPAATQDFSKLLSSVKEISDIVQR

Compound `COc1ccc(NC(=S)NNC2=c3ccccc3=NC2=O)cc1` has an IC50 of over 50 µM.

Target: Cyclin-dependent kinase 2 (Homo sapiens, UniProt P24941)
Assay: Inhibition of CDK2/cyclinA
Conditions: not given

`COc1ccc(NC(=S)NNC2=c3ccccc3=NC2=O)cc1` showed an IC50 of over 50 µM.

Target: Ribosomal protein S6 kinase alpha-1 (Homo sapiens, UniProt Q15418)
Assay: not given
Conditions: not given

Ribosomal protein S6 kinase alpha-1, sequence (Q15418 whole entry): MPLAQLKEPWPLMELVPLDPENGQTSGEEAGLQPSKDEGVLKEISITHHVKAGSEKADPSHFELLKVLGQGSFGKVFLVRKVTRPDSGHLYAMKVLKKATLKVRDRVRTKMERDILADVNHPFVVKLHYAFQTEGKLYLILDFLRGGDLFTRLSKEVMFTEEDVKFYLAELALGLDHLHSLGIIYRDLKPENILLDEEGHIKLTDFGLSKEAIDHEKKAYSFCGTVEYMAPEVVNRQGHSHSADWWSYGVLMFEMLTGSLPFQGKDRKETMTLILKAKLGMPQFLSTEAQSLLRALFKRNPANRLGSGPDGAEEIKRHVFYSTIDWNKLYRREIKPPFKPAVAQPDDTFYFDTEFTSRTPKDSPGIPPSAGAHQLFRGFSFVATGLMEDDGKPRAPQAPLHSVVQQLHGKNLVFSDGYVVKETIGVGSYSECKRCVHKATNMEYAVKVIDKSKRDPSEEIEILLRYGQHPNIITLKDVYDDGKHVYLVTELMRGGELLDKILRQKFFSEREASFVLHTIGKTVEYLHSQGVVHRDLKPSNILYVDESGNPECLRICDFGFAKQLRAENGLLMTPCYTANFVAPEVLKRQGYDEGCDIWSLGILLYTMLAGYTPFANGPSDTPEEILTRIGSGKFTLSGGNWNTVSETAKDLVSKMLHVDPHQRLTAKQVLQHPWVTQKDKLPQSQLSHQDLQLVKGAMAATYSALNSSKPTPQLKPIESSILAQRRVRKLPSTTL

Work on `COc1ccc(NC(=S)NNC2=c3ccccc3=NC2=O)cc1` yielded an IC50 of 34.9 µM.

System: not listed separately
Assay: cells
Conditions: Homo sapiens, KB-V1, 72 h
Description: Cytotoxicity against human P-glycoprotein-expressing KBV1 cells after 72 hrs by MTT assay

Point of comparison: `NC(=S)N/N=C/c1ncccc1N` [TRIAPINE], IC50 5.9 µM. Against it:
- NC(=S)/N=N/c1c(O)[nH]c2ccccc12 — higher, > 50 µM
- O=C1Nc2ccc([N+](=O)[O-])cc2/C1=N/NC(=S)Nc1ccccc1 — 1.7-fold higher, 10.2 µM
- C=CCNC(=S)N/N=C1\C(=O)Nc2ccc([N+](=O)[O-])cc21 — 5.8-fold higher, 34.3 µM
- Cc1cnc(/C=N/NC(N)=S)c2cccc(N)c12 — 2.8-fold lower, 2.1 µM
- COc1ccc(NC(=S)NN)cc1 — higher, > 50 µM
- COc1ccc(NC(=S)N/N=C/c2ccccn2)cc1 — 2.5-fold lower, 2.4 µM
- COc1ccc(NC(=S)N/N=C2\C(=O)Nc3c2ccc2ccccc32)cc1 — 5.1-fold higher, 30.3 µM
- COc1ccc(NC(=S)N/N=C2\C(=O)Nc3ccc(F)cc32)cc1 — within 1.5-fold, 5.2 µM
- COc1ccc(NC(=S)N/N=C2\C(=O)N(C)c3ccccc32)cc1 — 1.6-fold higher, 9.3 µM
- COc1ccc(NC(=S)N/N=C2\C(=O)Nc3ccc([N+](=O)[O-])cc32)cc1 — within 1.5-fold, 6.7 µM
- COc1ccc(NC(=O)N/N=C2\C(=O)Nc3ccccc32)cc1 — higher, > 50 µM
- COc1ccc(NC(=S)NN=C2Cc3ccccc3C2)cc1 — higher, > 50 µM
- COc1ccc(NC(=S)N/N=C2\CCc3ccccc32)cc1 — higher, > 50 µM
- O=C1Nc2ccc(Br)cc2/C1=N/NC(=S)Nc1ccc([N+](=O)[O-])cc1 — within 1.5-fold, 4 µM
- CCOC(=O)C(=CNC(=S)N/N=C1\C(=O)Nc2ccccc21)C(=O)OCC — higher, > 50 µM
- O=C1Nc2ccc(Br)cc2/C1=N/NC(=S)Nc1ccc(F)cc1 — within 1.5-fold, 5.8 µM
- COc1ccc(NC(=S)NNC2=c3ccccc3=NC2=O)cc1 — 1.8-fold lower, 3.3 µM
- COc1ccc(NC(=S)N/N=C2\C(=O)Nc3ccc(S(=O)(=O)O)cc32)cc1 — higher, > 50 µM
- COc1ccc(NC(=S)N/N=C/c2ccc(NC(C)=O)cc2)cc1 — higher, > 50 µM
- C=CCNC(=S)N/N=C1\C(=O)Nc2ccccc21 — 3.5-fold higher, 20.7 µM
- NC(=O)N/N=C1\C(=O)Nc2ccccc21 — higher, > 50 µM
- CC(=O)Nc1ccc(/C=N/NC(N)=S)cc1 [AMITHIOZONE] — higher, > 50 µM
- O=C1Nc2ccccc2C1=O [ISATIN] — higher, > 50 µM

Same assay, conditions: Homo sapiens, KB-V1, 72 h, read-out: pIC50 (converted)

Point of comparison: `O=C1Nc2ccc(Br)cc2/C1=N/NC(=S)Nc1ccc(F)cc1`, IC50 5.75 µM. Against it:
- O=C1Nc2ccc([N+](=O)[O-])cc2/C1=N/NC(=S)Nc1ccccc1 — 1.8-fold higher, 10.2 µM
- C=CCNC(=S)N/N=C1\C(=O)Nc2ccc([N+](=O)[O-])cc21 — 6.2-fold higher, 35.5 µM
- Cc1cnc(/C=N/NC(N)=S)c2cccc(N)c12 — 2.8-fold lower, 2.09 µM
- COc1ccc(NC(=S)N/N=C/c2ccccn2)cc1 — 2.4-fold lower, 2.4 µM
- COc1ccc(NC(=S)N/N=C2\C(=O)Nc3ccc(F)cc32)cc1 — within 1.5-fold, 5.25 µM
- COc1ccc(NC(=S)N/N=C2\C(=O)N(C)c3ccccc32)cc1 — 1.6-fold higher, 9.33 µM
- COc1ccc(NC(=S)N/N=C2\C(=O)Nc3ccc([N+](=O)[O-])cc32)cc1 — within 1.5-fold, 6.76 µM
- O=C1Nc2ccc(Br)cc2/C1=N/NC(=S)Nc1ccc([N+](=O)[O-])cc1 — within 1.5-fold, 3.98 µM
- COc1ccc(NC(=S)NNC2=c3ccccc3=NC2=O)cc1 — 1.7-fold lower, 3.31 µM
- C=CCNC(=S)N/N=C1\C(=O)Nc2ccccc21 — 3.6-fold higher, 20.9 µM
- NC(=S)N/N=C/c1ncccc1N [TRIAPINE] — within 1.5-fold, 5.89 µM

Target: Rho-associated protein kinase 1 (Homo sapiens, UniProt Q13464)
Assay: Inhibition of ROCK1
Conditions: not given

Rho-associated protein kinase 1, sequence (Q13464 whole entry): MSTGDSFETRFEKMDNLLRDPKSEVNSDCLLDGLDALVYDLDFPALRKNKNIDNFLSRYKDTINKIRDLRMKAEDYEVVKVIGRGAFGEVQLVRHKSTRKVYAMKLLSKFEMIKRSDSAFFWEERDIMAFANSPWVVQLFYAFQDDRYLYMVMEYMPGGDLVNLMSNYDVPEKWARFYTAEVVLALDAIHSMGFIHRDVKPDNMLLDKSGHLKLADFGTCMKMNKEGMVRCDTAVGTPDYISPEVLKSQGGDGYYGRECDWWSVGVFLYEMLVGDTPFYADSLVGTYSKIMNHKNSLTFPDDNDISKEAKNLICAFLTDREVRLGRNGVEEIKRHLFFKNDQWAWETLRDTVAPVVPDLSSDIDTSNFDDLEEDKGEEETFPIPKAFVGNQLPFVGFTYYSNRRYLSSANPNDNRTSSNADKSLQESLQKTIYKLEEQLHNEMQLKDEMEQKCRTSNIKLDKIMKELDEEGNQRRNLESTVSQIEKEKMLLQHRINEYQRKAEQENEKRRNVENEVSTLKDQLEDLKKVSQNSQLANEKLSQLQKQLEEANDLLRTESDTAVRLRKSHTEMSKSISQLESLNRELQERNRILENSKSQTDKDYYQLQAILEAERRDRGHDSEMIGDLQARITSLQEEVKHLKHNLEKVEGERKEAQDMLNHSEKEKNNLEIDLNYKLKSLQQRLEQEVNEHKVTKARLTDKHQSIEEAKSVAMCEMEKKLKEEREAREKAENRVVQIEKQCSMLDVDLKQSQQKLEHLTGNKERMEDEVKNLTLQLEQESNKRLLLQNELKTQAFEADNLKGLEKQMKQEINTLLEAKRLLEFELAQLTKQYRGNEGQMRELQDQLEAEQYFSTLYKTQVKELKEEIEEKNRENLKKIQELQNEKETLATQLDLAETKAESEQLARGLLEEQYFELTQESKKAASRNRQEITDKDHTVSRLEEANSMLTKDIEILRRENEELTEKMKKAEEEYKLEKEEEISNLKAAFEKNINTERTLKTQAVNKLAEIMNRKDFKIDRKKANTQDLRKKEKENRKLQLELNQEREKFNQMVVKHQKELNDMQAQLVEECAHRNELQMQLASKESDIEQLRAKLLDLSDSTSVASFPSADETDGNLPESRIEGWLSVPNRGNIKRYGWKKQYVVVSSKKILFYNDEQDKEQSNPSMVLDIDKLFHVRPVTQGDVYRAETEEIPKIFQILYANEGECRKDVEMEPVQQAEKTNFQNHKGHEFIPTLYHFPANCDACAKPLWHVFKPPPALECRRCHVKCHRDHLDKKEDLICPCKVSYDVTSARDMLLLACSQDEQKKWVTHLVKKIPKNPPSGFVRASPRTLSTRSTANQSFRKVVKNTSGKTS

With `COc1ccc(NC(=S)NNC2=c3ccccc3=NC2=O)cc1` the IC50 was over 50 µM.

Target: Serine/threonine-protein kinase PLK2 (Homo sapiens, UniProt Q9NYY3)
Assay: not given
Conditions: not given

Serine/threonine-protein kinase PLK2, sequence (Q9NYY3 whole entry): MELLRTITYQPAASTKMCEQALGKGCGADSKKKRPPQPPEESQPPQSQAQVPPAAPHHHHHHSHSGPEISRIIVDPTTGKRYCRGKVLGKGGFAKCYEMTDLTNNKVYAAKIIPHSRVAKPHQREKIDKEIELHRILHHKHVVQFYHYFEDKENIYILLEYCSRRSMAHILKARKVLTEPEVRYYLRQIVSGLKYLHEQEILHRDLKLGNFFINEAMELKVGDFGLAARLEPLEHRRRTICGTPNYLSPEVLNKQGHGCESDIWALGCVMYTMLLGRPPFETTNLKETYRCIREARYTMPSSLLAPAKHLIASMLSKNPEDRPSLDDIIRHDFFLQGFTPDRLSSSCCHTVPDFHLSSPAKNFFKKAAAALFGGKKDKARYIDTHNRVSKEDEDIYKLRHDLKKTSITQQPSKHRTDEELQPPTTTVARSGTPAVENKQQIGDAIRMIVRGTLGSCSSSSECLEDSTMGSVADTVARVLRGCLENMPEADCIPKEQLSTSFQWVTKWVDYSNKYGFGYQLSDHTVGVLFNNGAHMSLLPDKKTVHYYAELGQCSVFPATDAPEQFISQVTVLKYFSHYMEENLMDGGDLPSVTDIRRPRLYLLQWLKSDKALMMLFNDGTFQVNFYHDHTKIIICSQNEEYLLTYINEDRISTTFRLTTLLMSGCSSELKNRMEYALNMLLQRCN

For `COc1ccc(NC(=S)NNC2=c3ccccc3=NC2=O)cc1`, the IC50 was over 50 µM.
